The source of these data is patent US5401769A, “Dibenzofuranyl N-alkyl carbamates” (priority 1994, dated 1995).

The structures appear in SMILES notation.

In test [1] the target is T1, cholesterol ester hydrolase (CEH) / cholesterol esterase (EC 3.1.1.13) (Bos taurus, UniProt P30122).
T1 construct: purchased Sigma Company, St. Louis, Mo., U.S.A. C-1892; host or cells: bovine pancreas
T1 sequence (P30122 19-597): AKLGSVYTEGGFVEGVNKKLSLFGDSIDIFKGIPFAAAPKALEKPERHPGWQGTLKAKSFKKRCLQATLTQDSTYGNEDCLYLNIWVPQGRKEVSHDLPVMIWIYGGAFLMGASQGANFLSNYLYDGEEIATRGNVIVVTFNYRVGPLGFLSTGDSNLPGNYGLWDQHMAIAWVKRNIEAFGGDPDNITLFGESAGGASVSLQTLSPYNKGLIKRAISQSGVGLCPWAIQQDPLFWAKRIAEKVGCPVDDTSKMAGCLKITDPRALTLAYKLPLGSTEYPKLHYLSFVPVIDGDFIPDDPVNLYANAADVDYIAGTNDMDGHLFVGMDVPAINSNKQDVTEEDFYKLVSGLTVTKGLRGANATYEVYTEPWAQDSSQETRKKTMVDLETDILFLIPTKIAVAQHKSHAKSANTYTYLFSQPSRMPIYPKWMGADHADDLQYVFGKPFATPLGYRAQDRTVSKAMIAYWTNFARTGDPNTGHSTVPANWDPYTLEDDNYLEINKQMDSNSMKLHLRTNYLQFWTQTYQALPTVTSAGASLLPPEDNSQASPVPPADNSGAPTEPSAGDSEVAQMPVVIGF
Put plainly: In vitro inhibition of cholesteryl ester formation by cholesterol esterase (CEH). The test is classed as biochemical, bovine. The text has this: (§1) The in vitro and in vivo standard experimental test procedures used to establish the ability of the anticholesterolemic compounds of this invention to prevent cholesteryl ester formation and to inhibit cholesterol absorption, are given below and the biological results are presented in Table I.
In Vitro Test Procedure: The ability of the compounds of this invention to inhibit the formation of cholesteryl esters and thereby interfere with and prevent assimilation of cholesterol into the lymphatic system and ultimately the blood stream was established by incubating the compounds at 37° C. with a mixture of cholesterol and oleic acid in the presence of buffered cholesterol esterase [(EC 3.1.1.13) Sigma Company, St. Louis, Mo., U.S.A., No. C-1892, from bovine pancreas] and measuring the amount of ester formed, according to the procedure of Field, J. of Lipid Research, 25, 389 (1984).

The subject of test [2] is absorption of 14C-cholesterol. Description: In vivo cholesterol absorption, [4-14C] cholesterol, serum radioactivity at six hours, normal rats. The following applies: 10 mg/kg oral, 6 hr, normal rat, percent decrease compared to control. As to the method:
as §1
In Vivo Assay: The in vivo cholesterol absorption studies were conducted in normal rats by oral administration of the compound being tested in propylene glycol and olive oil followed by oral administration of [4-^14 C] cholesterol in propylene glycol and olive oil, otherwise following the procedure of Cayen et al., J. Lipid Res. 20, 162 (1979). The serum radioactivity was measured at six hours after dosing. The results of this study are reported in the following Table I as percent decrease compared to control.

Consider `CNC(=O)Oc1ccc2oc3ccccc3c2c1` [Example 5, Methylcarbamic acid 2-dibenzofuranyl ester], for which the IC50 in test [1] amounted to 42 µM.

With `CCCCCCNC(=O)Oc1ccc2oc3ccccc3c2c1` [Example 3, Hexylcarbamic acid 2-dibenzofuranyl ester], it took 9.3 µM to reach half-maximal inhibition in test [1] (IC50). For the same compound, in test [2], the “In Vivo Results Effect on Absorption of 14C-chol, % Decrease” value (shortened to “In Vivo Results Effect … % Decrease”) was determined as 37%.

On to `CC(C)CCCC(C)NC(=O)Oc1ccc2oc3ccccc3c2c1` (centres unmarked) [Example 2, (1.5-Dimethylhexyl) carbamic acid 2-dibenzofuranyl ester], for which, in test [1], the IC50 was 3 µM. Further, the “In Vivo Results Effect … % Decrease” value in test [2] worked out at 33%.

The compound `CCNC(=O)Oc1ccc2oc3ccccc3c2c1` [Example 8, Ethylcarbamic acid 2-dibenzofuranyl ester] came in with an IC50 in test [1] of 18.9 µM. Besides, the “In Vivo Results Effect … % Decrease” value in test [2] is 18%.

In the case of `CCCCNC(=O)Oc1ccc2oc3ccccc3c2c1` [Example 1, Butylcarbamic acid 2-dibenzofuranyl ester], the IC50 in test [1] was determined as 25 µM.

Compound `O=C(NCC1CCCCC1)Oc1ccc2oc3ccccc3c2c1` [Example 6, (Cyclohexylmethyl)carbamic acid 2-dibenzofuranyl ester] displayed an IC50 in test [1] of 13.8 µM. For the same compound, in test [2], the “In Vivo Results Effect … % Decrease” value was 43%.

Consider `O=C(NCCCCc1ccccc1)Oc1ccc2oc3ccccc3c2c1` [Example 4, (4-Phenylbutyl)carbamic acid 2-dibenzofuranyl ester], for which the IC50 in test [1] worked out at 68 µM. Also, in test [2], the “In Vivo Results Effect … % Decrease” value was found to be 44%.

`CCCCCCCCCCCCNC(=O)Oc1ccc2oc3ccccc3c2c1` [Example 7, Dodecylcarbamic acid 2-dibenzofuranyl ester] yielded an IC25 in test [1] (IC25 printed in the IC50 column, 37° C., cholesterol and oleic acid, cholesterol esterase from bovine pancreas) of 7.2 µM. The “In Vivo Results Effect … % Decrease” value in test [2] is 13%.
